We go through four molecules from patent US20260355325A1, “DIMER COMPOUNDS” (KESMALEA THERAPEUTICS LIMITED, priority 2023, published 2026).

Assay [1] deals with 22RV-1, LNCaP, and VCaP cells. Put plainly: AR CTG Assay (Cell Titer-Glo cell viability). To be noted: Cell viability in cells at 24-hour timepoint (22RV-1, LNCaP, VCaP; line not stated). It counts as cell-based. An excerpt:
22RV-1, LNCaP, and VCaP cells were obtained from ATCC (ATCC, Manassas, VA). 22RV-1 and LNCaP cells were maintained in RPMI 1640 (Invitrogen™, Waltham, MA) supplemented with 10% FBS (AusGeneX, Molendinar, Australia) and 1% penicillin/streptomycin (Invitrogen™, Waltham, MA). VCaP cells were maintained in 1:1 ratio F-12(HAM) Nutrient mixture (AdvanCell Technology, Taichung city, Taiwan) and DMEM (Invitrogen™, Waltham, MA) supplemented with 10% FBS (AusGeneX, Molendinar, Australia) and 1% penicillin/streptomycin (Invitrogen™, Waltham, MA).
Compounds were dissolved in DMSO (10 mM), serially diluted from 10 mM to 1.5 nM, and pre-incubated for 2 hours. Exponentially growing cells were seeded at 8×10^3 cells per well of 384 well plate (Corning, New York #3570). Cells were treated with compound for 24 hours. Following treatment, Cell Titer-Glo® Detection reagent (Promega Corporation, Madison, WA) was added according to manufacturer's instructions, and signal read using BMG CLARIOstar plate reader (BMG Labtech, Ortenburg, Germany). Each data point was performed in duplicate for every experiment. A GI50 value was calculated from linear regression analysis of the plots.

Assay [2] has as its target T1, AR (Androgen Receptor) (Homo sapiens, UniProt P10275).
T1 construct: immunofluorescence degradation readout (antibody D6F11), 48 h
T1 sequence (P10275 1-920): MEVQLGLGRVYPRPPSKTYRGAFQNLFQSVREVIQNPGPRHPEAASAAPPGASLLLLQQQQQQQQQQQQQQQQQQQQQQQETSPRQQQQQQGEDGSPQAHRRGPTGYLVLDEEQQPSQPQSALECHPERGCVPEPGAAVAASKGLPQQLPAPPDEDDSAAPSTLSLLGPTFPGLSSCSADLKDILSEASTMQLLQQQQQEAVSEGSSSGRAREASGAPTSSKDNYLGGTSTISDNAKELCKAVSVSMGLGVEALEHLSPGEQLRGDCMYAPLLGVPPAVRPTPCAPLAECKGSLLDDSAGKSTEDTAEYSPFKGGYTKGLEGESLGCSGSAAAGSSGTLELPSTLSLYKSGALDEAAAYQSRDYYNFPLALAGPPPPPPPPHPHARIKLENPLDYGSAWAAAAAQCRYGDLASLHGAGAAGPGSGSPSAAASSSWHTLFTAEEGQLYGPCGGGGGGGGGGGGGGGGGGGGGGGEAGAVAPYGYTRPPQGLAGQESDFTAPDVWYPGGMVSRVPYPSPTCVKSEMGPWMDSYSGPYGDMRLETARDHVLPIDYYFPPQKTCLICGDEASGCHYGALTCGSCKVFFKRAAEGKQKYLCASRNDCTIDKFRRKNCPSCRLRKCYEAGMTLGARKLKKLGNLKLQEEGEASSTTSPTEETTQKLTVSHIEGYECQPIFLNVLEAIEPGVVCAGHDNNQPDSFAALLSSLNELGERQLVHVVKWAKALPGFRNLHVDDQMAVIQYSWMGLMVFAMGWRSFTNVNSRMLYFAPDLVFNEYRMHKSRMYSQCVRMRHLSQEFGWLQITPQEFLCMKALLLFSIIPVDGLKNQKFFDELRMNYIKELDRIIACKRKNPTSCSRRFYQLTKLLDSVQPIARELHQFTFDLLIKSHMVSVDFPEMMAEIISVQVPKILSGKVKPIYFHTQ
Put plainly: AR IFA Assay (androgen receptor degradation in LNCaP and VCaP cells). It counts as cell-based. To be noted: AR degradation in cells (LNCaP, VCaP) at 48-hour timepoint. The source says:
The purpose of the AR Assays were to assess the binding affinity of the dimer to AR and subsequent protein degradation.
LNCaP, and VCaP cells were obtained from ATCC (ATCC, Manassas, VA). LNCaP cells were maintained in RPMI 1640 (Invitrogen™, Waltham, MA) supplemented with 10% FBS (AusGeneX, Molendinar, Australia) and 1% penicillin/streptomycin (Invitrogen™, Waltham, MA). VCaP cells were maintained in 1:1 ratio F-12(HAM) Nutrient mixture (AdvanCell Technology, Taichung city, Taiwan) and DMEM (Invitrogen™, Waltham, MA) supplemented with 10% FBS (AusGeneX, Molendinar, Australia) and 1% penicillin/streptomycin (Invitrogen™, Waltham, MA).
Compounds were dissolved in DMSO (10 mM), serially diluted from 10 mM to 1.5 nM, and pre-incubated for 2 hours. Exponentially growing cells were seeded at 8×10^3 cells per well of 384 well plate (Corning, New York #356663). Cells were treated with compound for 48 hours. Following treatment, cells were fixed with 4% PFA (SolarBio Lifescience, Beijing, China) for 20 minutes, permeabilised in 100% ice-cold methanol (Merck, Darmstadt, Germany) for 10 minutes, and blocked with blocking buffer (LI-COR Biosciences Lincoln, NE) for 90 minutes. Cells were incubated with primary Androgen Receptor (D6F11) XP® Rabbit mAb antibody (CST #5153 Danvers, MA) at 1:1000 dilution overnight in blocking buffer (LI-COR, Lincoln, NE) at 4° C. Cells were washed in DPBS (Thermo Fisher Scientific, Waltham, MA) and incubated with secondary antibody AlexaFluor 488 goat anti rabbit (Invitrogen™ #A-11008 Waltham, MA) 1:1000 dilution, with Hoechst stain (Invitrogen™ Waltham, MA) 1:5000 dilution in blocking buffer (LI-COR Biosciences, Lincoln, NE) for 90 minutes. After final DPBS wash, 200 ul of DPBS was added to the cells, and signal read on Operetta (Revvity, Waltham, MA). Each data point was performed in duplicate for every experiment. A DC50 value was calculated from linear regression analysis of the plots.

`Cc1cc(C(=O)N(C)CCCOc2cccc3c2CN(C2CCC(=O)NC2=O)C3=O)ccc1B1O[C@H]2C[C@H]3C[C@H](C3(C)C)[C@@]2(CCCNc2ccc(C(=O)N[C@H]3CC[C@H](Oc4ccc(C#N)c(Cl)c4)CC3)cc2)O1` (mixture of isomers) [Example 23, 4-((3aR,4R,6R,7aS)-3a-(3-((4-((trans-4-(3-chloro-4-cyanophenoxy)cyclohexyl)carbamoyl)phenyl)amino)propyl)-5,5-dimethylhexahydro-4,6-methanobenzo[d][1,3,2]dioxaborol-2-yl)-N-(3-((2-(2,6-dioxopiperidin-3-yl)-1-oxoisoindolin-4-yl)oxy)propyl)-N,3-dimethylbenzamide]: the IC50 in assay [1] is over 10000 nM. This molecule also displayed a DC50 in assay [2] of 100 to 500 nM.

With `Cc1ccc(C(=O)N(C)CCCOc2cccc3c2CN(C2CCC(=O)NC2=O)C3=O)cc1B1O[C@H]2C[C@H]3C[C@H](C3(C)C)[C@@]2(CCCNc2ccc(C(=O)N[C@H]3CC[C@H](Oc4ccc(C#N)c(Cl)c4)CC3)cc2)O1` (mixture of isomers) [Example 24, 3-((3aR,4R,6R,7aS)-3a-(3-((4-((trans-4-(3-chloro-4-cyanophenoxy)cyclohexyl)carbamoyl)phenyl)amino)propyl)-5,5-dimethylhexahydro-4,6-methanobenzo[d][1,3,2]dioxaborol-2-yl)-N-(3-((2-(2,6-dioxopiperidin-3-yl)-1-oxoisoindolin-4-yl)oxy)propyl)-N,4-dimethylbenzamide], the IC50 in assay [1] is over 10000 nM. Besides, in assay [2], the DC50 was in the range of 100 to 500 nM.

On to `Cc1cc2c(cc1B1O[C@H]3C[C@H]4C[C@H](C4(C)C)[C@@]3(CCOc3ccc(N4C(=S)N(c5ccc(C#N)c(C(F)(F)F)c5)C(=O)C4(C)C)cc3)O1)CN(CCCOc1cccc3c1CN(C1CCC(=O)NC1=O)C3=O)C2=O` (stereo partly drawn) [Example 21, 4-(3-(4-(2-((3aR,4R,6R,7aS)-2-(2-(3-((2-(2,6-dioxopiperidin-3-yl)-1-oxoisoindolin-4-yl)oxy)propyl)-6-methyl-1-oxoisoindolin-5-yl)-5,5-dimethyltetrahydro-4,6-methanobenzo[d][1,3,2]dioxaborol-3a(4H)-yl)ethoxy)phenyl)-4,4-dimethyl-5-oxo-2-thioxoimidazolidin-1-yl)-2-(trifluoromethyl)benzonitrile], for which, in assay [1], the IC50 is over 10000 nM. Also, the DC50 in assay [2] fell in the range of 100 to 500 nM.

As to `Cc1cc([C@@H](C(=O)N2C[C@H](O)C[C@H]2C(=O)NCc2ccc(Cl)cc2B2O[C@H]3C[C@H]4C[C@H](C4(C)C)[C@@]3(CCNc3ccc(C(=O)N[C@H]4CC[C@H](Oc5ccc(C#N)c(Cl)c5)CC4)cc3)O2)C(C)C)on1` (racemic) [Example 22, (2S,4R)—N-(4-chloro-2-((3aR,4R,6R,7aS)-3a-(2-((4-((trans-4-(3-chloro-4-cyanophenoxy)cyclohexyl)carbamoyl)phenyl)amino)ethyl)-5,5-dimethylhexahydro-4,6-methanobenzo[d][1,3,2]dioxaborol-2-yl)benzyl)-4-hydroxy-1-((S)-3-methyl-2-(3-methylisoxazol-5-yl)butanoyl)pyrrolidine-2-carboxamide], the IC50 in assay [1] is over 10000 nM. Also, in assay [2], the DC50 is 100 to 500 nM.
